Test results as given in PMC13185115, “Photovermellogens: Minimalistic Pyridinium-Based Acylhydrazones with Photoswitchable Basicity for Operation in Aqueous Media” (The Journal of Organic Chemistry, 2026).

How the values were obtained:
Assay type in all cases: physicochemical
[1] = pKa determination of E-P a-dH+ by UV-Vis titration; conditions: acidity constant of the cationic E form, water, 20 mM phosphate buffer, 298 K, triplicate
Description: (§1) With the photovermellogens synthesized and fully characterized, their acid–base properties were next investigated by UV–vis spectroscopy to determine whether the pH-responsiveness characteristic of parent vermellogens was retained. Indeed, P a–dH·Cl reproduced the archetypical absorption changes of vermellogens (Figures c and S130–S137, SI1). , In essence, the characteristic intense π–π* absorption bands of the cations undergo a considerable bathochromic shift upon deprotonation (Table ), as also confirmed by our quantum chemical calculations (Figure S2, S2), causing a notable color change from yellow to red. This pronounced shift allowed the estimation of pK a values for E-P a–dH^+ via UV–vis absorption titrations, which, as for other vermellogens, fall within the biologically relevant pH range (Figure c, Table and Figures S130–S137, SI1). Changes in the protonation state were also easily monitored by ^1H NMR spectroscopy, with the gain in electronic density translating in a substantial shielding of resonances of the corresponding conjugate bases E/Z-P a–d (Figure a). As already observed for E-P a–dH^+, the deprotonated species were also thermally stable in the absence of light.
4. Determination of pK a values for E-P a-dH+ by UV-Vis spectroscopy.
All the experiments were recorded on a Jasco V-650 spectrometer. […] Considering the previously reported behaviour of vermellogens,5 UV-Vis spectra were initially recorded in the 4-12 pH range, to qualitatively determine in each case the presence or absence of characteristic absorption bands for the acidic-basic forms of the compounds. From the qualitative data, UV-Vis titrations were recorded in the appropriate pH range for each […]
Figure S132. UV-Vis spectra of P bH·Cl at pH 5 (black) and pH 12 (red) at 20 µM. b) Linear relationship at pH 5 between absorbance at 378 nm and concentration of P bH·Cl (ε = 42265 ± 838 L·mol -1·cm-1). c) Linear relationship at pH 12 between absorbance at 456 nm and concentration of P bH·Cl (ε = 42143 ± 1044 L·mol -1·cm-1). […]
Figure S134. UV-Vis spectra of P cH·Cl at pH 6 (black) and pH 12 (red) at 14 µM. b) Linear relationship at pH 6 between absorbance at 350 nm and concentration of P cH·Cl (ε = 49266 ± 1780 L·mol-1·cm-1). c) Linear relationship at pH 12 between absorbance at 433 nm and concentration of P cH·Cl (ε = 46382 ± 1667 L·mol -1·cm-1). […]
Figure S136. UV-Vis spectra of P dH·Cl at pH 6 (red) and pH 13 (black) at 11 µM. b) Linear relationship at pH 6 between absorbance at 411 nm and concentration of P dH·Cl (ε = 65691 ± 2966 L·mol-1·cm-1). c) Linear relationship at pH 13 between absorbance at 500 nm and concentration of P dH·Cl (ε = 69154 ± 3100 L·mol -1·cm-1). […]

[2] = Photostationary state distribution by 1H NMR integration; conditions: pD 6; for PSD E→Z (photostationary state distribution): irradiation at 254 nm; for PSD Z→E (photostationary state distribution): irradiation at >420 nm
Description: Photoisomerization studies were subsequently carried out in acidic medium (pH = pK a – 2) in order to assess the photoresponse of the protonated species. Under these conditions, the anticipated photoisomerization of the thermally stable E-P a–dH^+ species was investigated by UV–vis absorption spectroscopy under irradiation at 254 nm. […] It is noteworthy that the irradiation wavelength can be extended to 365 nm, yielding virtually the same observations as for 254 nm irradiation (see footnotes of Table ). Irradiation also produced clear NMR spectral changes that support the occurrence of the E→Z isomerization. In essence, the signals Hf–h of the phenyl moiety were only slightly affected, whereas those of the pyridinium and acylhydrazone fragments shifted markedly, consistent with the formation of an intramolecular hydrogen bond in the Z-P a–cH^+ species. The reverse Z→E transformation of the protonated forms P a–cH^+ was also achieved upon irradiation at λ > 420 nm, giving lower quantum yields and less favorable PSDs (Figures S145–S147, S149–154, S1).

[3] = UV-vis absorption spectra in buffered water (λmax, molar absorption coefficient); conditions: for ε of the acidic form from absorbance vs concentration: P bH·Cl pH 5, 378 nm, P cH·Cl pH 6, 350 nm, P dH·Cl pH 6, 411 nm; for ε of the basic form from absorbance vs concentration: P bH·Cl pH 12, 456 nm, P cH·Cl pH 12, 433 nm, P dH·Cl pH 13, 500 nm; for λmax (Z-P) / ε (Z-P): Z conjugate base; for λmax (Z-P) / λmax (E-P) / λmax (E-PH^+) / λmax (Z-PH^+): maximum of the longest-wavelength absorption band; for λmax (Z-P) / ε (Z-P) / λmax (E-P) / ε (E-P) / λmax (E-PH^+) / λmax (Z-PH^+) / ε (E-PH^+) / ε (Z-PH^+): water; for ε (Z-P) / ε (E-P): molar absorption coefficient; for ε (Z-P) / ε (E-P) / ε (E-PH^+) / ε (Z-PH^+): error ± 5%; for λmax (E-P) / ε (E-P): conjugate base; for ε (E-PH^+) / ε (Z-PH^+): molar absorption coefficient at λmax
Description: as §1
Having confirmed the photochemical behavior of the protonated forms, we next explored their light-responsiveness in the deprotonated state. […] To probe whether Z-P a–c could nonetheless be generated indirectly, we explored a consecutive photoisomerization–deprotonation sequence. Thus, E-P a–cH^+ was first irradiated at 254 nm and pH 6 to enrich the Z population, followed by immediate adjustment of the solution to pH 13. Under these conditions, transient spectroscopic features were observed, consistent with the kinetic trapping of the metastable Z-P a–c species. […] These spectroscopic observations enabled the estimation of virtual pK a values for the Z-enriched solutions (Table and Figures S163–168, SI1), which confirmed the reduced acidity of the NH group in the Z-isomers, presumably arising from intramolecular hydrogen-bond formation.
Figure S132. UV-Vis spectra of P bH·Cl at pH 5 (black) and pH 12 (red) at 20 µM. b) Linear relationship at pH 5 between absorbance at 378 nm and concentration of P bH·Cl (ε = 42265 ± 838 L·mol -1·cm-1). c) Linear relationship at pH 12 between absorbance at 456 nm and concentration of P bH·Cl (ε = 42143 ± 1044 L·mol -1·cm-1).
Figure S133. UV-Vis spectra for the titration of P bH·Cl (20 μM in phosphate buffer solutions in the 4.1-10.6 pH range). b) Absorption of P bH+ at λ = 378 nm plotted against pH. c) Linear fitting […]
Figure S134. UV-Vis spectra of P cH·Cl at pH 6 (black) and pH 12 (red) at 14 µM. b) Linear relationship at pH 6 between absorbance at 350 nm and concentration of P cH·Cl (ε = 49266 ± 1780 L·mol-1·cm-1). c) Linear relationship at pH 12 between absorbance at 433 nm and concentration of P cH·Cl (ε = 46382 ± 1667 L·mol -1·cm-1).
Figure S135.UV-Vis spectra for the titration of P cH·Cl, (14 μM in phosphate buffer solutions in the 5.1-11.7 pH range). b) Absorption of P cH+ at λ = 351 nm plotted against pH. c) Linear fitting […]
Figure S136. UV-Vis spectra of P dH·Cl at pH 6 (red) and pH 13 (black) at 11 µM. b) Linear relationship at pH 6 between absorbance at 411 nm and concentration of P dH·Cl (ε = 65691 ± 2966 L·mol-1·cm-1). c) Linear relationship at pH 13 between absorbance at 500 nm and concentration of P dH·Cl (ε = 69154 ± 3100 L·mol -1·cm-1).
Figure S137. UV-Vis spectra for the titration of P dH·Cl (11 μM in phosphate buffer solutions in the 5.1-11.7 pH range). b) Absorption of P dH+ at λ = 410 nm plotted against pH. c) Linear fitting

SMILES	pK a (E-PH^+) [1]	PSD E→Z (photostationary state distribution) [2] [% Z]	PSD Z→E (photostationary state distribution) [2] [% E]	ε of the acidic form from absorbance vs concentration [3] [L/mol/cm]	ε of the basic form from absorbance vs concentration [3] [L/mol/cm]	λmax (Z-P) [3] [nm]	ε (Z-P) [3]	λmax (E-P) [3] [nm]	ε (E-P) [3]	λmax (E-PH^+) [3] [nm]	λmax (Z-PH^+) [3] [nm]	ε (E-PH^+) [3]	ε (Z-PH^+) [3]
C[n+]1ccc(NN=CC(=O)c2ccccc2)c2ccccc21 [P bH^+]	7.2 ± 0.1	93	57	42265 ± 838	42143 ± 1044	445	13,000 M^–1·cm^–1	456	42,000 M^–1·cm^–1	378	384	42,000 M^–1·cm^–1	36000 M^–1·cm^–1
O=C(C=NNc1cc[n+](-c2ccccc2)cc1)c1ccccc1 [P cH^+]	7.8 ± 0.1	98	55	49266 ± 1780	46382 ± 1667	420	15,000 M^–1·cm^–1	432	46,000 M^–1·cm^–1	349	359	49,000 M^–1·cm^–1	43,000 M^–1·cm^–1
C[n+]1ccc(-c2ccc(NN=CC(=O)c3ccccc3)cc2)cc1 [P dH^+]	11.2 ± 0.1			65691 ± 2966	69154 ± 3100			500	69,000 M^–1·cm^–1	411		66,000 M^–1·cm^–1	
C[n+]1ccc(NN=CC(=O)c2ccccc2)cc1 [P aH^+]	8.8 ± 0.2	93	67			420	18,000 M^–1·cm^–1	429	39,000 M^–1·cm^–1	342	352	41,000 M^–1·cm^–1	43,000 M^–1·cm^–1
